In brackets after ≈: the same amount, converted by molar mass. Like-named read-outs stand apart in the source and are kept apart here.
Columns and labels:
Type in all cases: cell-based
[1] = system: Cryptococcus unigtullatas; assay: Antimycotic activity, paper disk inhibition zone; conditions: 48 h, concentration of 3 mg/ml, paper disk 8 mm, 37° C., 2 days, read-out: Inhibition zone diameters
Description: Referring to the antimycotic activity presented in Table 5, Cryptococcus unigtullatas and others were used as the test microbes, a paper disk (8 mm in diameter) was immersed in an aqueous solution of each test compound having a concentration of 3 mg/ml, air dried and placed on an agar medium, then incubation was conducted at 37° C. for 2 days, and the diameter (mm) of the inhibition zone was measured.

[2] = system: Tetrahymena pyriformis W; assay: Antiprotozoal activity, broth dilution method (MIC); conditions: 28° C., 44-48 hours, read-out: MIC against Tetrahymena pyriformis W
Description: Referring to the antiprotozoal activity given in Table 4, the microbial growth inhibiting activity (MIC) of each compound of this invention was assayed by the broth dilution method by incubating Tetrahymena pyriformis W strain as the test organism at 28° C. for 44-48 hours, using a test culture medium comprising 20 g of Tryptose peptine (Difco), 1 g of yeast extract, 2 g of glucose. 1,000 ml of distilled water and 10 ml of 1M phosphate buffer (pH 7.0).

[3] = system: Colletotrichum lagenarium; assay: Antifungal activity, serial dilution method (MIC); conditions: Colletotrichum orbiculare, read-out: MIC Colletotrichum lagenarium (cucumber anthracnose)
[4] = system: Alternaria solani; assay: Antifungal activity, serial dilution method (MIC); conditions: 1% glucose-bouillon agar medium, read-out: MIC Alternaria solani (potato early blight)
[5] = system: Leptosphaeria salvinii; assay: Antifungal activity, serial dilution method (MIC); conditions: Nakataea oryzae, read-out: MIC Leptosphaeria salvinii (rice stem rot)
[6] = system: Pyricularia oryzae; assay: microbe, parasite or virus in culture; conditions: read-out: MIC Pyricularia oryzae (rice blast)
[7] = system: Botrytis cinerea; assay: Antifungal activity, serial dilution method (MIC); conditions: read-out: MIC Botrytis cinerea (gray mold)
[8] = system: Cochliobolus miyabeanus; assay: Antifungal activity, serial dilution method (MIC); conditions: Bipolaris oryzae, read-out: MIC Cochliobolus miyabeanus (rice Helminthosporium leaf spot)
[9] = system: Gibberella fujikuroi; assay: Antifungal activity, serial dilution method (MIC); conditions: Fusarium fujikuroi, read-out: MIC Gibberella fujikuroi (rice Bakanae-disease)
[10] = system: Trichophyton rubrum IFO 5467 (DT-63); assay: Antitrichophyton activity, serial dilution method (MIC); conditions: IFO5467, Sabouraud's agar medium
Description: (§1) Referring to the antitrichophyton activity shown in Table 7, MIC values of tested compounds were determined by the serial dilution method using Sabouraud's agar medium.

[11] = system: Trichophyton mentagrophytes IFO (DT-66); assay: as above; conditions: Sabouraud's agar medium
Description: as §1

[12] = system: mouse myeloid leukemia M1 cells; assay: Induced differentiation of mouse myeloid leukemia M1 cells; conditions: at optimal dose: C00019 1 μg/ml, drawing 20 2 μg/ml
Description: By employing soft-agar medium having similar components to those in Test Example 1, incubation of myeloid leukemia (M1) cells harvested from mice was conducted in the presence of the test compound in its optimal concentration. Observation on various biological and biochemical properties caused by induced differentiation was conducted. In Table 2 are given the results obtained by determination of the degree of the induced differentiation employing, as the indexes, among those properties, morphological changes (matured granulocytes, matured macrophages, others caused by changes in appearance of cells at the stage of differentiation),phagocytic activity (plastic small pieces.phagocytosis) and lysozyme activity. Additionally stating, these morphological changes were not observed under the conditions devoid of the drugs.

[13] = 1% glucose-bouillon agar medium

## CCCCCCCCCCCCCCCCCCOCC(COP(=O)([O-])OCC[N+](C)(C)C)OC (stereo not shown) [drawing 27 R = C18 H37]
[1]
  zone of inhibition at 3000 µg/mL: 18 mm

## CCCCCCCCCCCCOCC(COP(=O)([O-])OCC[N+](C)(C)C)OC (stereo not shown) [drawing 27 R = C12 H25]
[1]
  zone of inhibition at 3000 µg/mL: 15 mm

## CCCCCCCCCCCCOCCCOP(=O)([O-])OCC[N+](C)(C)C [drawing 25 R = C12 H25]
[2]
  MIC: 1 µg/mL (≈ 2.44 µM)

## CCCCCCCCCCCCCOCCCOP(=O)([O-])OCC[N+](C)(C)C [Compound (B) R = C13 H27]
[3]; [13]
  MIC: 1.56 µg/mL (≈ 3.68 µM)
[4]
  MIC: 25 µg/mL (≈ 59 µM)
[5]; [13]
  MIC: 12.5 µg/mL (≈ 29.5 µM)
[6]
  MIC: 6.25 µg/mL (≈ 14.8 µM)
[7]
  MIC: 6.25 µg/mL (≈ 14.8 µM)
[8]
  MIC: 6.25 µg/mL (≈ 14.8 µM)
[9]; [13]
  MIC: 25 µg/mL (≈ 59 µM)

## CCCCCCCCCCCCOCC(COP(=O)([O-])OCC[N+](C)(C)C)OC (stereo not shown) [Compound (A) R = C12 H25, reference compound]
[3]; [13]
  MIC: 12.5 µg/mL (≈ 28.4 µM)
[4]
  MIC: 50 µg/mL (≈ 114 µM)
[5]; [13]
  MIC: 25 µg/mL (≈ 56.9 µM)
[6]
  MIC: 25 µg/mL (≈ 56.9 µM)
[7]; [13]
  MIC: 50 µg/mL (≈ 114 µM)
[8]
  MIC: > 100 µg/mL
[9]; [13]
  MIC: > 100 µg/mL

## CCCCCCCCCCCCCOCC(COP(=O)([O-])OCC[N+](C)(C)C)OC (stereo not shown) [R = C13 H27, A = drawing 33]
[10]
  MIC: 3.12 µg/mL (≈ 6.88 µM)
[11]
  MIC: 6.25 µg/mL (≈ 13.8 µM)

## CCCCCCCCCCCCOCC(COP(=O)([O-])OCC[N+](C)(C)C)OC (stereo not shown) [drawing 23 R = C12 H25]
[2]
  MIC: 0.4 µg/mL (≈ 0.91 µM)

## CCCCCCCCCCCCOCCCOP(=O)(O)OCCN [drawing 26 R = C12 H25]
[2]
  MIC: 2 µg/mL (≈ 5.44 µM)

## CCCCCCCCCCCCCCCCCCOCCCOP(=O)([O-])OCC[N+](C)(C)C [drawing 29 R = C18 H37]
[1]
  zone of inhibition at 3000 µg/mL: 17 mm

## CCCCCCCCCCCCCCCCCCOCCCOP(=O)([O-])OCC[N+](C)(C)C [drawing 25 R = C18 H37]
[2]
  MIC: 2 to 4 µg/mL (≈ 4.05 to 8.1 µM)

## CCCCCCCCCCCCCCOCCCOP(=O)([O-])OCC[N+](C)(C)C [Compound (B) R = C14 H29]
[3]
  MIC: 6.25 µg/mL (≈ 14.3 µM)
[4]
  MIC: 50 µg/mL (≈ 114 µM)
[5]
  MIC: 6.25 µg/mL (≈ 14.3 µM)
[6]
  MIC: 6.25 µg/mL (≈ 14.3 µM)
[7]
  MIC: 6.25 µg/mL (≈ 14.3 µM)
[8]
  MIC: 12.5 µg/mL (≈ 28.6 µM)
[9]
  MIC: 12.5 µg/mL (≈ 28.6 µM)

## CCCCCCCCCCCCCOCCCOP(=O)(O)OCCN [drawing 26 R = C13 H27]
[2]
  MIC: 0.4 µg/mL (≈ 1.05 µM)

## CCCCCCCCCCCCCOCC(COP(=O)([O-])OCC[N+](C)(C)C)OC (stereo not shown) [drawing 27 R = C13 H27]
[1]
  zone of inhibition at 3000 µg/mL: 19 mm

## CCCCCCCCCCCCCCOCC(COP(=O)([O-])OCC[n+]1ccccc1)OC (stereo not shown) [R = C14 H29, A = drawing 36]
[10]
  MIC: 1.56 µg/mL (≈ 3.2 µM)
[11]
  MIC: 3.12 µg/mL (≈ 6.4 µM)

## CCCCCCCCCCCCOCC(COP(=O)(O)OCCN)OC (stereo not shown) [drawing 28 R = C12 H25]
[1]
  zone of inhibition at 3000 µg/mL: < 5 mm

## CCCCCCCCCCCCCCOCC(COP(=O)([O-])OCC[N+](C)(C)C)OC (stereo not shown) [drawing 20]
[12]; None 2.0 %
  Phagocytic cells: 25.9%
[12]; None 2.1 %
  Morphological change: 53.4%
[12]; None 2.2
  Lysozyme activity: 80.1 units/mg protein

## CCCCCCCCCCCCCCOCC(COP(=O)([O-])OCC[N+](C)(C)C)OC (stereo not shown) [drawing 23 R = C14 H29]
[2]
  MIC: 0.2 µg/mL (≈ 0.428 µM)

## CCCCCCCCCCCCCCCCCCOCC(COP(=O)(O)OCCN)OC (stereo not shown) [drawing 24 R = C18 H37]
[2]
  MIC: 4 µg/mL (≈ 8.3 µM)

## CCCCCCCCCCCCCCOCC(COP(=O)(O)OCCN)OC (stereo not shown) [drawing 24 R = C14 H29]
[2]
  MIC: 2 µg/mL (≈ 4.7 µM)

## CCCCCCCCCCCCCCOCC(COP(=O)([O-])OCC[N+](C)(C)C)OC (stereo not shown) [drawing 27 R = C14 H29]
[1]
  zone of inhibition at 3000 µg/mL: 22 mm

## CCCCCCCCCCCCCCOCCCOP(=O)([O-])OCC[N+](C)(C)C [drawing 29 R = C14 H29]
[1]
  zone of inhibition at 3000 µg/mL: 21 mm

From patent US4544512A, “Tridecyloxy- or tetradecyloxy-propane derivatives” (Takeda Chemical Industries, Ltd., priority 1980, dated 1985)
